{
  "source": "patent US20160178605A1",
  "about": "“Electrical Cell-substrate Impedance Sensor (ECIS)” (priority 2015, published 2016)",
  "test_system": "MCF-7 cells",
  "experiment": "SiNW-ECIS impedance and capacitance response of MCF-7 cells to antitubulin drugs",
  "format": "cell-based, human",
  "conditions": "PTX 0.1 nano-moles per liter; for normalized capacitance change (ΔC %) vs control sample / normalized impedance change (ΔZ %) vs control sample: MCF-7, 2 hours (T1) after drug incubation; for normalized capacitance change (ΔC %) vs control sample / normalized impedance change (ΔZ %) vs control sample / change in norm of impedance of treated cells between T1 and T2 / norm of capacitive changes, control sample more than drug treated values: ABZ 2.1 nano-moles per liter; for normalized impedance change (ΔZ %) vs control sample: mean; for norm of capacitive changes, control sample more than drug treated values: MCF-7, 6 hours (T2) after drug incubation",
  "procedure": "In this example, the diagnostic response of cells membrane to extremely low dose of antitubulin drugs is investigated. Initially, MCF-7 cell lines, isolated from grade I human breast tumors, were obtained from the National Cell Bank of Iran (Pasteur Institute). Then, cells were maintained in a CO2 incubator (37° C., 5% CO2) in RPMI-1640 medium supplemented with 5% fetal bovine serum, and 1% penicillin/streptomycin. The fresh medium was replaced every other day. Then, the cultured cells were dropped on the surface of the SiNW-ECIS, designed and fabricated pursuant to teachings of the present application. Prior to each experiment, cells were trypsinized to be detached from the substrate and resuspended on the SiNW surface. To minimize the effect of trypsinization, the procedure may last for less than 4 minutes at room temperature of about 20° C. The samples were held in an incubator for about 4 hours to achieve cells attachment on the SiNWs. Thereafter, the ABZ drug with low concentrations of about 2.1 nano-moles per liter and the PTX drug with low concentrations of about 0.1 nano-moles per liter were added to individual samples. Finally, the signal recording and biological assays were investigated about 2 hours and 6 hours after the drug treatment (6 hours and 10 hours after the beginning of culturing process).\nReferring to FIGS. 12A-12G, comparative normalized diagrams of impedance (designated by ΔZ % and represented by solid black lines) and capacitance changes (designated by ΔC % and represented by dashed grey lines) are illustrated for MCF-7 cells seeded on SiNW electrodes after treating by 2.1 nano-moles per liter of ABZ and 0.1 nano-moles per liter of PTX. The time interval between the drug incubation and the signal extraction are 2 hours (designated by T1) and 6 hours (designated by T2). In addition, the same diagrams are plotted for control sample prepared with no drug treatment stage.\nAccording to the method described in the present example, the samples were maintained in an incubator so that the signal extraction was repeated 10 hours after cells dropping (6 hours after drug incubation for treated samples) to monitor the time evolution of drug induced MT polymerization/depolymerization on bioelectrical response of the membrane.",
  "key": {"[1]": {"conditions": "MCF-7, 2 hours (T1) vs 6 hours (T2) after drug incubation"}},
  "data": [
    {"molecule": "CCCSc1ccc2nc(NC(=O)OC)[nH]c2c1", "note": "[ABZ, Albendazole]", "values": [
      {"measurement": "normalized capacitance change (ΔC %) vs control sample", "result": 70, "unit": "%"},
      {"measurement": "normalized impedance change (ΔZ %) vs control sample", "result": 25, "unit": "%"},
      {"measurement": "change in norm of impedance of treated cells between T1 and T2", "setting": "[1]", "result": "about 60%"},
      {"measurement": "norm of capacitive changes, control sample more than drug treated values", "result": "about 90%"}
    ]},
    {"molecule": "CC(=O)O[C@H]1C(=O)[C@@]2(C)[C@H]([C@H](OC(=O)c3ccccc3)[C@]3(O)C[C@H](OC(=O)[C@H](O)[C@@H](NC(=O)c4ccccc4)c4ccccc4)C(C)=C1C3(C)C)[C@]1(OC(C)=O)CO[C@@H]1C[C@@H]2O", "note": "[PTX, Paclitaxel]", "values": [
      {"measurement": "normalized capacitance change (ΔC %) vs control sample", "result": "about 60%"},
      {"measurement": "normalized impedance change (ΔZ %) vs control sample", "result": "about 50%"},
      {"measurement": "change in norm of impedance of treated cells between T1 and T2", "setting": "[1]", "result": 15, "unit": "%"},
      {"measurement": "time dependent variation in capacitive behavior between T1 and T2", "setting": "[1]", "result": "about 85%"},
      {"measurement": "norm of capacitive changes, control sample more than drug treated values", "result": "~75", "unit": "%"}
    ]}
  ]
}
